This is an account of results in patent publication US8389573B2, “Glycyrrhetinic acid derivatives” (Wellington Laboratories Inc., priority 2006, dated 2013).

Data set [1] has as its system SW480 cells. As to the kind of experiment: Western blot analysis in SW480 cells. Format: cell-based, human. The protocol:
SW-480 and HT-29 (3×10^5) cells were seeded in six-well plates in DMEM/Ham's F-12 media containing 2.5% charcoal-stripped FBS for 24 h and then treated with either the vehicle (DMSO) or the indicated compounds. Whole-cell lysates were obtained using high-salt buffer [50 mM HEPES, 500 mM NaCl, 1.5 mM MgCl2, 1 mM EGTA, 10% glycerol, and 1% Triton X-100, pH 7.5, and 5 μl/ml Protease Inhibitor Cocktail (Sigma-Aldrich)]. Protein samples were incubated at 100° C. for 2 min, separated on 10% SDS-PAGE at 120 V for 3 to 4 h in 1× running buffer (25 mM Tris-base, 192 mM glycine, and 0.1% SDS, pH 8.3), and transferred to polyvinylidene difluoride membrane (PVDF; Bio-Rad, Hercules, Calif.) at […] for 16 h at 4° C. in 1× transfer buffer (48 mM Tris-HCl, 39 mM glycine, and 0.025% SDS). The PVDF membrane was blocked in 5% TBST-Blotto (10 mM Tris-HCl, 150 mM NaCl, pH 8.0, 0.05% Triton X-100, and 5% nonfat dry milk) with gentle shaking for 30 min and was incubated in fresh 5% TBST-Blotto with 1:1000 (for caveolin-1, p27, p21, cyclin D1, Grp78), 1:500 (for KLF4, NAG-1), 1:250 (for PARP), and 1:5000 (for β-actin) primary antibody overnight with gentle shaking at 4° C. After washing with TBST for 10 min, the PVDF membrane was incubated with secondary antibody (1:5000) in 5% TBST-Blotto for 90 min. The membrane was washed with TBST for 10 min, incubated with 10 ml of chemiluminescence substrate (PerkinElmer) for 1.0 min, and exposed to Kodak X-OMAT AR autoradiography film (Eastman Kodak, Rochester, N.Y.).

Data set [2] concerns PPARγ. Particulars: SW480 cells, previous studies (22); cited from earlier work.
For data set [3], the system named is SW480 colon cancer cells. Nature of the data set: Cell proliferation assay in SW480 cells. Particulars: Homo sapiens, read-out: IC50, growth inhibition / cell proliferation. Type of data set: cell-based. The protocol:
(§1) Human colon carcinoma cell lines SW480 and HT29 were provided by Dr. Stan Hamilton, M.D. Anderson Cancer Center (Houston, Tex.); SW-480 and HT-29 cells were maintained in Dulbecco's modified Eagle's medium nutrient mixture with Ham's F-12 (DMEM/Ham's F-12; Sigma-Aldrich, St. Louis, Mo.) with phenol red supplemented with 0.22% sodium bicarbonate, 0.011% sodium pyruvate, and 5% fetal bovine serum and 10 ml/l 100× antibiotic antimycotic solution (Sigma-Aldrich). Cells were maintained at 37° C. in the presence of 5% CO2.
(§2) SW480 and HT 29 Cells (2×10^4) were plated in 12-well plates, and media were replaced the next day with DMEM/Ham's F-12 media containing 2.5% charcoal-stripped FBS and either vehicle (DMSO) or the indicated ligand and dissolved in DMSO. Fresh media and compounds were added every 48 h. Cells were counted at the indicated times using a Coulter Z1 cell counter. Each experiment was done in triplicate, and results are expressed as means±S.E. for each determination

Data set [4] deals with Panc28 pancreatic cancer cells. Nature of the data set: Growth inhibition in Panc28 pancreatic cancer cells. Format: cell-based. Particulars: Pancreatic cancer cell.
For data set [5], the system named is PPARγ. As to the kind of experiment: PPARγ-GAL4/pGAL4 transfection and luciferase assay in SW480 cells. Type of data set: cell-based. The note with it: for PPARγ transactivation: up to 30 μM. On the procedure: (§3) The Gal4 reporter containing 5× Gal4 response elements (pGal4) was kindly provided by Dr. Marty Mayo (University of North Carolina, Chapel Hill, N.C.). Gal4 DBD-PPARγ construct (gPPARγ) was a gift of Dr. Jennifer L. Oberfield (GlaxoSmithKline Research and Development, Research Triangle Park, N.C.). PPRE3-luc construct contains three tandem PPREs with a minimal TATA sequence in pGL2.
(§4) Colon Cancer cell lines SW480 and HT29 (1×10^5 cells/well) were plated in 12-well plates in DMEM/Ham's F-12 media supplemented with 2.5% charcoal-stripped FBS. After 16 h, various amounts of DNA [i.e., Gal4Luc (0.4 μg), β-Gal (0.04 μg), Gal4PPAR and PPRE3-Luc (0.04 μg)] were transfected using LipofectAMINE™ reagent (Invitrogen) following the manufacturer's protocol. Five hours after transfection, the transfection mix was replaced with complete media containing either vehicle (DMSO) or the indicated ligand for 20 to 22 h. Cells were then lysed with 100 μl of 1× reporter lysis buffer, and 30 μl of cell extract was used for luciferase and […] assays. A LumiCount™ luminometer (PerkinElmer Life and Analytical Sciences) was used to quantitate luciferase and β-Gal activities, and the luciferase activities were normalized to β-Gal activity. Results are expressed as means±S.E. for at least three replicate determinations for each treatment group

For data set [6], the system named is PPARγ. As to the kind of experiment: PPARγ-GAL4/pGAL4 transfection and luciferase assay in HT-29 cells. Format: cell-based. The protocol:
as §3, §4

The subject of data set [7] is HT-29 colon cancer cells. As to the kind of experiment: Cell proliferation assay in HT-29 cells. Type of data set: cell-based. The note with it: Homo sapiens, read-out: IC50, growth inhibition / cell proliferation. The protocol:
as §1, §2

Data set [8] deals with T1, PPARγ (Homo sapiens, UniProt P37231).
T1 construct: endogenous in cells; host or cells: SW480 colon cancer cells
T1 sequence (P37231 1-505): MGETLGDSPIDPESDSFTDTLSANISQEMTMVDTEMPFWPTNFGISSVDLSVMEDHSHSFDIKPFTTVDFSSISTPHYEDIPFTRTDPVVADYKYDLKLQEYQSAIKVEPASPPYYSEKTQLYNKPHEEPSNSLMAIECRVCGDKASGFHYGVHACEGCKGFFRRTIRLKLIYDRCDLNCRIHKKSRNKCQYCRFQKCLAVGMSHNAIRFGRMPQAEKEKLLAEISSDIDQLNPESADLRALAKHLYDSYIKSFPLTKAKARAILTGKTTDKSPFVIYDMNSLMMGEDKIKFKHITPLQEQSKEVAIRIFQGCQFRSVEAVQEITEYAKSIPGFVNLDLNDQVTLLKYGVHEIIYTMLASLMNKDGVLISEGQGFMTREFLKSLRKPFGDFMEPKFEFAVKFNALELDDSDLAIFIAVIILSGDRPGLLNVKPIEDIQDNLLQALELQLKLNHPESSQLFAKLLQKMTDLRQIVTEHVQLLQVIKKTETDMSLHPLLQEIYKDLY
Nature of the data set: PPRE3-Luc transfection and luciferase assay in SW480 cells. Type of data set: cell-based. The protocol:
as §3, §4

Data set [9] concerns LNCaP human prostate carcinoma cells. Nature of the data set: Cell proliferation assay in LNCaP cells. Type of data set: cell-based. The note with it: 96 hr, read-out: IC50, inhibition of LNCaP cell growth. The protocol:
Cell lines: LNCaP human prostate carcinoma cells were obtained from American Type Culture Collection (Manassas, Va.). Fetal bovine serum was obtained from JRH Biosciences, Lenexa, Kans. LNCaP cells were maintained in RPMI 1640 (Sigma Chemical, St. Louis, Mo.) supplemented with 0.22% sodium bicarbonate, 0.011% sodium pyruvate, 0.45% glucose, 0.24% HEPES, 10% FBS, and 10 mL/L of 100× antibiotic/antimycotic solution (Sigma). Cells were maintained at 37° C. in the presence of 5% CO2.
Cell Proliferation and DNA Fragmentation Assays: LNCaP prostate cancer cells (2×10^4 per well) were added to 12-well plates and allowed to attach for 24 hr. The medium was then changed to DMEM/Ham's F-12 media containing 2.5% charcoal-stripped FBS, and either vehicle (DMSO) or the indicated C-DIMs were added. Fresh medium and indicated compounds were added every 48 hr, and cells were then trypsinized and counted after 2, 4, and 6 days using a Coulter Z1 cell counter (Beckman Coulter, Fullerton, Calif.). Each experiment was done in triplicate, and results are expressed as means±S.E. for each set of three experiments. The DNA fragmentation assay was performed using a BioVision Apoptotic DNA ladder extraction kit (BioVision, Mountain View, Calif.) according to the manufacturer's protocol.

Data set [10] relates to PPARγ. As to the kind of experiment: PPARγ-GAL4/GAL4-Luc or PPRE3-Luc transactivation in LNCaP cells. Type of data set: cell-based. Particulars: 1-5 μM. From the text: Transfections: The Gal4 reporter construct containing 5× Gal4 response elements (pGal4) was kindly provided by Dr. Marty Mayo (University of North Carolina, Chapel Hill, N.C.). The Gal4 DBD-PPARγ construct was a gift of Dr. Jennifer L. Oberfield (Glaxo Wellcome Research and Development, Research Triangle Park, N.C.). The PPRE-luc construct contains three tandem PPREs with a minimal TATA sequence linked to the luciferase gene in pGL2. The AR-luc construct containing the −5400 to +580 region of the androgen receptor promoter was provided by Dr. Donald J. Tindall (Mayo Clinic, Rochester, Minn.), and the PSA-luc construct containing the 5.8-kilobase region of the PSA promoter was provided by Dr. Hong-Wu Cheng (University of California, Davis, Calif.). LNCaP cells (1×10^5) were seeded in 12-well plates in DMEM/Ham's F-12 media supplemented with 2.5% charcoal-stripped FBS and grown overnight. Transient transfections were performed using Lipofectamine reagent (Invitrogen) according to the protocol provided by the manufacturer. Transfection studies were performed using 0.4 μg of Gal4Luc, 0.04 μg of β-galactosidase, 0.04 μg of Gal4 DBD-PPARγ, 0.4 μg of AR-luc, and 0.3 μg of PSA-luc. Six hr after transfection, the transfection mix was replaced with complete media containing either vehicle (DMSO) or the indicated ligand for 20 to 22 hr. Cells were then lysed with 100 μl of 1× reporter lysis buffer, and 30 μl of cell extract was used for luciferase and β-galactosidase assays. A Lumicount luminometer (PerkinElmer Life and Analytical Sciences) was used to quantify luciferase and β-galactosidase activities, and the luciferase activities were normalized to β-galactosidase activity.

As for `CC1(C)CC[C@]2(C(=O)O)CC[C@]3(C)[C@H](C(=O)C=C4[C@@]5(C)C=C(C#N)C(=O)C(C)(C)[C@@H]5CC[C@]43C)[C@@H]2C1` [CDDO, 2-cyano-3,12-dioxo-oleana-1, 9(11)-diene-28-oic acid, reference compound], the caveolin-1 protein expression entry in [1] (SW480, treatment for 3 days) is given as “induce caveolin-1 protein”. The “luciferase activity with GAL4-PPARγ/GAL4-Luc” value in data set [2] is listed as “induced luciferase activity”.

In the case of `COC(=O)[C@@]1(C)CC[C@]2(C)CC[C@]3(C)C(=CC(=O)[C@@H]4[C@@]5(C)C=C(C#N)C(=O)C(C)(C)[C@@H]5CC[C@]43C)[C@H]2C1` [α-CDODA-Me, Methyl 2-cyano-3,11-dioxo-18α-oleana-1,12-dien-30-oate], the IC50 in data set [3] is 0.5 µM; in [4], 500 to 1000 nM.

Take `CC1(C)C(=O)C(C#N)=C[C@]2(C)[C@H]3C(=O)C=C4[C@@H]5C[C@@](C)(C(=O)O)CC[C@]5(C)CC[C@@]4(C)[C@]3(C)CC[C@@H]12` [β-CDODA, 2-cyano-3,11-dioxo-18β-oleana-1,12-dien-30-oic acid]: the melting point is 195 to 197 °C. The “concentration at which KLF4 is induced” value in [1] (SW480, 24 hr) lay within 10 to 20 µM. For the same molecule, the PARP cleavage result in [1] (SW480, 24 hr, 10-40 μM) is reported as “observed”. The IC50 in data set [3] lay within 2.5 to 5 µM. Moreover, the “induced luciferase activity after cotreatment with PPARγ antagonist T007” value in data set [5] (1.0, 2.5, 5.0 β-CDODA-Me or 10, 20, 30 μM β-CDODA, 10 μM T007) is on record as “inhibited”. For the same molecule, the “increase in luciferase activity (PPARγ activation)” value in data set [5] (20-30 μM) was under 4.5 fold. For the same molecule, the “PPARγ transactivation (GAL4-PPARγ/GAL4-Luc)” value in data set [6] is reported as “induced transactivation”. Moreover, the IC50 in data set [7] was found to be 1 µM. For the same molecule, in data set [8], the “transactivation of PPRE3-Luc” value was “induced transactivation”. The “PPRE3-Luc transactivation after cotreatment with PPARγ antagonists T007 and GW9662” value in data set [8] (10 μM antagonist) is “inhibited”.

As to `CC1(C)C(=O)C=C[C@]2(C)[C@H]3C(=O)C=C4[C@@H]5C[C@@](C)(C(=O)O)CC[C@]5(C)CC[C@@]4(C)[C@]3(C)CC[C@@H]12` [β-DODA, 3,11-Dioxo-18β-oleana-1,12-dien-30-oic acid], the melting point lay in the range of 270 to 275 °C. For the same molecule, the IC50 in data set [3] was determined as 25 µM. The PPARγ transactivation entry in data set [5] is reported as “did not enhance transactivation”. Moreover, in data set [6], the “PPARγ transactivation (GAL4-PPARγ/GAL4-Luc)” value was “minimal activity”. In addition, in data set [7], the IC50 is 20 to 30 µM. Besides, the IC50 in data set [9] is over 15 µM.

Molecule `COC(=O)[C@@]1(C)CC[C@]2(C)CC[C@]3(C)C(=CC(=O)[C@@H]4[C@@]5(C)C=CC(=O)C(C)(C)[C@@H]5CC[C@]43C)[C@@H]2C1` [β-DODA-Me, Methyl 3,11-dioxo-18β-oleana-1,12-dien-30-oate] yielded a melting point of 192 to 194 °C. The IC50 in [3] amounted to 10 µM. The PPARγ transactivation entry in data set [5] was “did not enhance transactivation”. Moreover, the “PPARγ transactivation (GAL4-PPARγ/GAL4-Luc)” value in [6] is recorded as “minimal activity”. Besides, the IC50 in data set [7] was in the range of 5 to 10 µM. Moreover, the IC50 in [9] was in the range of 10 to 15 µM. In addition, the “PPARγ-dependent transactivation (luciferase activity)” value in data set [10] is “did not activate PPARγ”.

As for “Methyl 2-iodo-3,11-dioxo-18β-oleana-1,12-diene-30-oate [β-IDODA-Me]”, the “PPARγ-dependent transactivation (luciferase activity)” value in data set [10] is listed as “did not activate PPARγ”.
